Where a name gives a salt, the structure may show the parent alone.
Tests used:
aromatase [1] = test: Assay of aromatase-inhibiting action (in vivo), inhibition of DHEAS-induced cornification of vaginal smear; set-up: species or system rat; settings: for Inhibition rate (cornification-inhibiting action against cornification in the solvent administration group): mature female rats after enucleation of the pituitary gland, 2 mg/kg test compound orally with 16 mg/kg DHEAS once a day, 4 days, smears of day 3 to 5
Description: (2) Assay of aromatase-inhibiting action (in vivo)
Aromatase-inhibiting action was assayed according to the method developed by G. H. Deckers and A. H. W. M. Schuurs (Journal of Steroid Biochemistry,32, 625-631, (1989)).
Namely, groups of mature female rats at one week after enucleation of the pituitary gland were used, each group consisting of 8 to 10 animals. 16 mg/kg of dehydroepiandrosterone sulfate (DHEAS) and 5 ml/kg of a solvent (physiological saline containing 2% polysorbate 80), or DHEAS and 2 mg/kg of a test compound suspended in the solvent were orally administered to each rat once a day for the succeeding 4 days. For 6 days starting from the next day of the first administration, vaginal smear was sampled and observed by a microscope after being stained with Giemsa staining solution. Cornification of the vaginal smear with DHEAS was observed from 3 days after the first administration, and its action disappeared 6 days thereafter. Therefore, the cornification smear number was assumed to be the total of 3 days from the third day to fifth day after the initiation of administration. A cornification-inhibiting action with a test compound was expressed as the rate against cornification in the solvent administration group.
In this connection, the cornification of vaginal smear is caused by estrogens biosynthesized from DHEAS by aromatase, and therefore, when aromatase is inhibited, inhibition of cornification is observed.

aromatase [2] = biological target: T1, aromatase (Homo sapiens, UniProt P11511); test: Assay of aromatase-inhibiting action (in vitro), human placental microsome, 3H2O release from [1,2-3H]androstenedione; assay type: biochemical; settings: 2 μM [1,2-3H]androstenedione, 180 μM NADPH, pH 7.5, 37° C., 20 minutes
T1 construct: 150 μg of freeze dried human placental microsome; from tissue; host or cells: human placenta, microsomes
T1 sequence (P11511 1-503): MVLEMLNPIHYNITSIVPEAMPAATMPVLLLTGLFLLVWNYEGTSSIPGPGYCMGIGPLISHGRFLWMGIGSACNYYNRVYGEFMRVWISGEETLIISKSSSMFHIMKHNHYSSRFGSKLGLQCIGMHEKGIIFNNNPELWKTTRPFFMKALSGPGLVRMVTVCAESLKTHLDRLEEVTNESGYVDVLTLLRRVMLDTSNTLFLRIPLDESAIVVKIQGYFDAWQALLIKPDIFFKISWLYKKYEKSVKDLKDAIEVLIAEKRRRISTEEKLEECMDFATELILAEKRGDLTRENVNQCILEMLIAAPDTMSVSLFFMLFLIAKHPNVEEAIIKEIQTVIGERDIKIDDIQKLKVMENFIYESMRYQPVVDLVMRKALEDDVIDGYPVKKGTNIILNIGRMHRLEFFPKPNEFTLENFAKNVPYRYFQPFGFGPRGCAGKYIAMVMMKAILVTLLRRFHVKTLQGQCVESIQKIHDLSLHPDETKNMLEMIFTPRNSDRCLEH
Description: (1) Assay of aromatase-inhibiting action (in vitro)
Human placental microsome (centrifuged at 105,000×g for 60 minutes) was prepared, according to the method of Ryan (The Journal of Biological Chemistry, 234, 268-272, (1959)). The microsome was used after it was washed twice with 0.5 mM dithiothreitol solution, freeze dried, and stored at -20° C.
The aromatase-inhibiting action was assayed according to the method developed by Tompson and Siiteri (Journal of Biological Chemistry, 249, 5373-5378, (1974)). Namely, the method comprises quantitatively determining ^3 H2 O released through aromatization of [1,2-^3 H]androstenedione. The experiment using the enzyme was performed in 67 mM phosphate buffer (pH 7.5) so that the final amount of the incubation solution could be 0.5 ml. The incubation solution contained 180 μM of NADPH, 2μM of [1,2-^3 H]androstenedione, 150 μg of freeze dried human placental microsome, 25 μl of methanol and a test compound in various concentrations. Incubation was performed in the air at 37° C. for 20 minutes, the reaction was terminated with addition of 3 ml of chloroform, and the mixture was stirred for 40 seconds. The mixture was centrifuged at 700×g for 10 minutes, 0.3 ml of the aqueous solution was taken from the supernatant, the scintillation mixture was added, and the amount of ^3 H2 O formed was measured.

[3] = 16 mg/kg DHEAS orally, once a day, rats

SMILES | Cornification of the vaginal smear with DHEAS observed from (days after the first administration) (aromatase [1]; [3]) | disappearance of the cornification action of DHEAS (days thereafter) (aromatase [1]; [3]) | IC50 (aromatase [2]) | Inhibition rate (cornification-inhibiting action against cornification in the solvent administration group) (aromatase [1])
C[C@]12CC[C@H](OS(=O)(=O)O)CC1=CC[C@@H]1[C@@H]2CC[C@]2(C)C(=O)CC[C@@H]12 [DHEAS, dehydroepiandrosterone sulfate, reference compound] | 3 days | 6 days |  | 
C[C@]12CCC(=O)C=C1C[C@@H](Sc1ccc(N)cc1)[C@@H]1[C@@H]2CC[C@]2(C)C(=O)OCC[C@@H]12 [Example 1, 7α-[(4-aminophenyl)thio]-D-homo-17-oxaandrost-4-ene-3,17a-dione] |  |  | 2300 nM | 
C[C@]12CC[C@H]3[C@@H]([C@H](S)CC4=CC(=O)C=C[C@@]43C)[C@@H]1CCOC2 [Example 8, 7α-mercapto-D-homo-17-oxaandrosta-1,4-dien-3-one] |  |  | 400 nM | 68.2 ± 13.6%
C[C@]12C=CC(=O)C=C1C[C@@H](S)[C@@H]1[C@@H]2CC[C@]2(C)C(=O)OCC[C@@H]12 [Example 16, 7α-mercapto-D-homo-17-oxaandrosta-1,4-diene-3,17a-dione] |  |  | 500 nM | 70.6 ± 15.6%
CC(=O)S[C@H]1CC(=O)C=C2C[C@@H](SC(C)=O)[C@@H]3[C@H](CC[C@]4(C)C(=O)OCC[C@@H]34)[C@]21C [Example 43, 1α,7α-bis(acetylthio)-D-homo-17-oxaandrost-4-ene-3,17a-dione] |  |  |  | 70.6 ± 15.6%

— patent publication US5539127A, “7-substituted oxa- or azasteroid compound” (Teikoku Hormone Mfg. Co., Ltd., priority 1992, dated 1996)
